Columns and labels:
[1] = tested on: Rev responsive element (RRE) RNA; test: Ratio of the dissociation constant between Rev37-50 and the PNA-peptide; assay type: nucleic-acid assay
[2] = target: Rev responsive element (RRE) RNA; test: Dissociation constant of compound with Rev-responsive element (RRE) IIB RNA was determined by the competition assay; assay type: nucleic-acid assay

Compound	Ratio [1]	Kd [2]
C[C@H](NC(=O)CN(CCNC(=O)CN(CCNC(=O)CN(CCNC(=O)CN(CCNC(=O)CCC(=O)O)C(=O)Cn1cnc2c(=O)[nH]c(N)nc21)C(=O)Cn1ccc(N)nc1=O)C(=O)Cn1cnc2c(=O)[nH]c(N)nc21)C(=O)Cn1ccc(N)nc1=O)C(=O)N[C@@H](CCCNC(=N)N)C(=O)N[C@@H](CCCNC(=N)N)C(=O)N[C@@H](CC(N)=O)C(=O)N[C@@H](CCCNC(=N)N)C(=O)N[C@@H](CCCNC(=N)N)C(=O)N[C@@H](CCCNC(=N)N)C(=O)N[C@@H](CCCNC(=N)N)C(=O)N[C@@H](Cc1c[nH]c2ccccc12)C(=O)N[C@@H](CCCNC(=N)N)C(=O)N[C@@H](CCC(=O)O)C(=O)N[C@@H](CCCNC(=N)N)C(=O)N[C@@H](CCC(N)=O)C(=O)N[C@H](CCCNC(=N)N)C(N)=O	15	5.7 nM
C[C@H](NC(=O)CN(CCNC(=O)CCC(=O)O)C(=O)Cn1ccc(N)nc1=O)C(=O)N[C@@H](CCCNC(=N)N)C(=O)N[C@@H](CCCNC(=N)N)C(=O)N[C@@H](CC(N)=O)C(=O)N[C@@H](CCCNC(=N)N)C(=O)N[C@@H](CCCNC(=N)N)C(=O)N[C@@H](CCCNC(=N)N)C(=O)N[C@@H](CCCNC(=N)N)C(=O)N[C@@H](Cc1c[nH]c2ccccc12)C(=O)N[C@@H](CCCNC(=N)N)C(=O)N[C@@H](CCC(=O)O)C(=O)N[C@@H](CCCNC(=N)N)C(=O)N[C@@H](CCC(N)=O)C(=O)N[C@H](CCCNC(=N)N)C(N)=O	2.8	31 nM

Next, values leading:

Ratio [1]	Kd [2]	Compound
2.9	30 nM	C[C@H](NC(=O)CN(CCNC(=O)CCC(=O)O)C(=O)Cn1cnc2c(=O)[nH]c(N)nc21)C(=O)N[C@@H](CCCNC(=N)N)C(=O)N[C@@H](CCCNC(=N)N)C(=O)N[C@@H](CC(N)=O)C(=O)N[C@@H](CCCNC(=N)N)C(=O)N[C@@H](CCCNC(=N)N)C(=O)N[C@@H](CCCNC(=N)N)C(=O)N[C@@H](CCCNC(=N)N)C(=O)N[C@@H](Cc1c[nH]c2ccccc12)C(=O)N[C@@H](CCCNC(=N)N)C(=O)N[C@@H](CCC(=O)O)C(=O)N[C@@H](CCCNC(=N)N)C(=O)N[C@@H](CCC(N)=O)C(=O)N[C@H](CCCNC(=N)N)C(N)=O
3.1	28 nM	C[C@H](NC(=O)CN(CCNC(=O)CN(CCNC(=O)CCC(=O)O)C(=O)Cn1cnc2c(N)ncnc21)C(=O)Cn1ccc(N)nc1=O)C(=O)N[C@@H](CCCNC(=N)N)C(=O)N[C@@H](CCCNC(=N)N)C(=O)N[C@@H](CC(N)=O)C(=O)N[C@@H](CCCNC(=N)N)C(=O)N[C@@H](CCCNC(=N)N)C(=O)N[C@@H](CCCNC(=N)N)C(=O)N[C@@H](CCCNC(=N)N)C(=O)N[C@@H](Cc1c[nH]c2ccccc12)C(=O)N[C@@H](CCCNC(=N)N)C(=O)N[C@@H](CCC(=O)O)C(=O)N[C@@H](CCCNC(=N)N)C(=O)N[C@@H](CCC(N)=O)C(=O)N[C@H](CCCNC(=N)N)C(N)=O
3.1	28 nM	C[C@H](NC(=O)CN(CCNC(=O)CN(CCNC(=O)CCC(=O)O)C(=O)Cn1ccc(N)nc1=O)C(=O)Cn1ccc(N)nc1=O)C(=O)N[C@@H](CCCNC(=N)N)C(=O)N[C@@H](CCCNC(=N)N)C(=O)N[C@@H](CC(N)=O)C(=O)N[C@@H](CCCNC(=N)N)C(=O)N[C@@H](CCCNC(=N)N)C(=O)N[C@@H](CCCNC(=N)N)C(=O)N[C@@H](CCCNC(=N)N)C(=O)N[C@@H](Cc1c[nH]c2ccccc12)C(=O)N[C@@H](CCCNC(=N)N)C(=O)N[C@@H](CCC(=O)O)C(=O)N[C@@H](CCCNC(=N)N)C(=O)N[C@@H](CCC(N)=O)C(=O)N[C@H](CCCNC(=N)N)C(N)=O
2.5	34 nM	C[C@H](NC(=O)CN(CCNC(=O)CN(CCNC(=O)CN(CCNC(=O)CCC(=O)O)C(=O)Cn1ccc(N)nc1=O)C(=O)Cn1ccc(N)nc1=O)C(=O)Cn1ccc(N)nc1=O)C(=O)N[C@@H](CCCNC(=N)N)C(=O)N[C@@H](CCCNC(=N)N)C(=O)N[C@@H](CC(N)=O)C(=O)N[C@@H](CCCNC(=N)N)C(=O)N[C@@H](CCCNC(=N)N)C(=O)N[C@@H](CCCNC(=N)N)C(=O)N[C@@H](CCCNC(=N)N)C(=O)N[C@@H](Cc1c[nH]c2ccccc12)C(=O)N[C@@H](CCCNC(=N)N)C(=O)N[C@@H](CCC(=O)O)C(=O)N[C@@H](CCCNC(=N)N)C(=O)N[C@@H](CCC(N)=O)C(=O)N[C@H](CCCNC(=N)N)C(N)=O

— ChEMBL document CHEMBL1134253, “HIV Rev peptides conjugated with peptide nucleic acids and their efficient binding to RRE RNA” (Bioorg Med Chem Lett, 2001)
